Assay results reported in patent US20090029856A1, “Hinokitiol As A Plant Pesticide” (priority 2007, published 2009).
Converted amounts (≈) assume the structure as drawn. “And” between values parts separate entries of the source, which are not always exact repeats. Equal entries are not always repeated.

Tests used:
[1] = test system: Lactuca sativa (lettuce) seeds; assay: 96-well seed germination inhibition screen; assay type: in vivo; conditions: single lettuce seed per well, 50 μL solution, 5× dilution series
Protocol: Numerous natural compounds were screened for their ability to inhibit the germination of dicot (broadleaved weed) seeds. A single seed of Lactuca sativa (lettuce) was placed in each well of a 96-well plate followed by 50 μL of a solution of each compound in a stepwise (5×) dilution series from 25% to 0%. Germination was monitored daily. Based on this screening study, the threshold value for hinokitiol to inhibit germination of seeds was determined at 0.32 mg/L.

Penicillium = assay: Hinokitiol spiral PDA plates, growth after 2 days; assay type: cell-based; conditions: 2 days of incubation
Protocol: (§1) In this method, a potato dextrose agar (PDA) medium is plated with the test solution by means of a spiral plater, which applies the compound in a 2.5-log dilution in a continuous radial concentration gradient. Fungal inoculum in two replicates is then placed along radial lines across the gradient. […] EC50 values were calculated based on these measurements. The fungi evaluated were members of the following families Anamorphic Phyllachoraceae (Colletotrichum acutatum), Anamorphic Sclerotiniaceae (Botrytis cinerea), Mitosporic fungi (Verticillium dahlias; Microphomina sp.), and Oomycota (Phytophtora capsici). Hinokitiol (5 mg/mL) was dissolved in acetone, and acetone alone was also used as a control to check for non-specific inhibition.
(§2) Another set of hinokitiol spiral PDA plates prepared as above were inoculated with plant pathogenic fungi from the genera Mucor, Rhizoctonia, Geotrichum, Phoma, and Penicillium.

Phoma = assay: Hinokitiol spiral PDA plates, growth after 2 days; assay type: cell-based; conditions: 2 days of incubation
Protocol: as §1, §2

Rhizoctonia = assay: Hinokitiol spiral PDA plates, growth after 2 days; assay type: cell-based; conditions: 2 days of incubation
Protocol: as §1, §2

Geotrichum = assay: Hinokitiol spiral PDA plates, growth after 2 days; assay type: cell-based; conditions: 2 days of incubation
Protocol: as §1, §2

Mucor = assay: Hinokitiol spiral PDA plates, growth after 2 days; assay type: cell-based; conditions: 2 days of incubation
Protocol: as §1, §2

[2] = test system: Lactuca sativa (lettuce) seedlings; assay: High-throughput 96-well post-emergence herbicide assay; assay type: in vivo
Protocol: A high-throughput 96-well assay was used to test the efficacy of hinokitiol as a post-emergence, non-selective herbicide. Seedlings of Lactuca sativa (lettuce) were grown in 96-well plates under continuous light. Hinokitiol was added on the one-week old seedlings at a 5×-dilution series from 1 to 0 mg/mL, and the minimum concentration needed for killing the seedling was recorded the next day.

[3] = test system: grey mold (Botrytis cinerea); assay: In vivo greenhouse test on green bell pepper (Capsicum annuum) against grey mold; conditions: for Average (mean) disease rating, 2 days / Average (mean) disease rating, 3 days / Average (mean) disease rating, 7 days: mean of 3 replicates; for rating at day 3 / rating at day 7 / rating at day 2: single replicates
Protocol: To further test the inhibitory effect of hinokitiol on grey mold (Botrytis cinerea), an in vivo test on green bell pepper (Capsicum annuum) was conducted in a greenhouse. Pepper plants at a 6-true-leaf growth stage were sprayed with hinokitiol in 50% ethanol. The stock solution (5 mg/mL) was prepared in 97% ethanol, and diluted to following concentrations: 0, 0.01, 0.1 mg/mL. To compare the efficacy of hinokitiol in an alcohol-free solution, a treatment with 0.1 mg/mL of hinokitiol in water was included in this study. Pepper plants with no treatment were used as controls. All treatments were carried out in 3 replicates. After treatment with hinokitiol, the leaf surfaces were allowed to dry under the growth lights, after which the plants were inoculated with a B. cinerea spore solution containing 2×10^6 spores per mL. Inoculated plants were incubated in the dark in a covered flat at 22° C. […] Symptoms were rated on a scale of 0-5; 0 indicating no lesions on leaves, and 5 indicating severe rotting/dead plant.

Verticillium dahliae = assay: Spiral gradient dilution method, inhibition of mycelial growth; assay type: cell-based; conditions: PDA, 20° C., hinokitiol in acetone
Protocol: as §1

Colletotrichum acutatum = assay: as above; assay type: cell-based; conditions: PDA, 20° C., hinokitiol in acetone
Protocol: as §1

Microphomina sp. = assay: as above; assay type: cell-based; conditions: PDA, 20° C., hinokitiol in acetone
Protocol: as §1

Phytophtora capsici = assay: as above; assay type: cell-based; conditions: PDA, 20° C., hinokitiol in acetone
Protocol: as §1

Botrytis cinerea = assay: Spiral gradient dilution method, inhibition of mycelial growth and spore germination; assay type: cell-based
Protocol: as §1

Botrytis gray mold = Botrytis gray mold on pepper plants, formulation applied pre and post infection; assay type: in vivo
Protocol: Pepper plants (California Wonder Bell Pepper) were treated with a 3.2% Hinokitiol formulation containing propylene glycol, nonphytotoxic ethoxylate fatty esters; butanol, EDTA, UV protection agent, 1% of a 15% solution of sodium hydroxide and water 3 hours before and 24 hours after inoculation (pre and post infection, respectively). Hinokitiol concentration in pre-infection application was 1.0% v/v and for post-infection application was 2.0% v/v. Three plants were included per treatment in pre-infection applications, and 18 plants in post-infection treatments. The formulation employed contained 3.2% of active ingredient. Inoculation was performed with a conidial suspension of 1.8×10^6 conidia per ml of 75% PDB (Potato Dextrose Broth). Scale of evaluation was 0=no infection, 1=Small scattered lesions, 2=Scattered big lesions or small ones covering more than 50% of leaf surface, 3=Half plant dead, 4=75% of the plant dead, 5=Entire plant dead. Evaluation was performed 3 days after inoculation.

[4] = 0.01 mg/mL in 50% ethanol, scale 0-5
[5] = 0.1 mg/mL in 50% ethanol, scale 0-5

In the case of `CC(C)c1cccc(=O)c(O)c1` [Hinokitiol, 4-isopropyl tropolone], the “threshold value to inhibit germination of seeds” value [1] is reported as 0.32 mg/L, the inhibition of growth (Penicillium) is reported as “complete inhibition” and the inhibition of growth (Phoma) is reported as “complete inhibition”. For the same compound, the inhibition of growth (Rhizoctonia) was “complete inhibition”, the inhibition of growth (Geotrichum) was “complete inhibition” and the inhibition of growth (Mucor) was “complete inhibition”. For the same compound, the “effect on lettuce seedlings” value ([2]; concentration of 8 mg/L) was “not harmful to the plant”, the “minimum concentration needed for killing the seedling” value ([2]; one-week old lettuce seedlings, recorded the next day) was 40 mg/L and the “Average (mean) disease rating, 2 days” value ([3]; 0.01 mg/mL EtOH, scale 0-5) was 1.7 a. For the same compound, the “Average (mean) disease rating, 3 days” value ([3]; 0.01 mg/mL EtOH, scale 0-5) was 2.7 ab, the “Average (mean) disease rating, 7 days” value ([3]; 0.01 mg/mL EtOH, scale 0-5) was 3.0 ab and the “rating at day 3” value [3, 4] was 4 and 3 and 1. For the same compound, the “rating at day 7” value [3, 4] was 5 and 3 and 1, the “rating at day 2” value ([3]; 0.01 mg/mL in 50% ethanol, scale 0-5 (0 no lesions, 5 severe rotting/dead plant)) was 2 (2×) and 1 and the “Average (mean) disease rating, 2 days” value ([3]; 0.1 mg/mL EtOH, scale 0-5) was 1.7 a. For the same compound, the “Average (mean) disease rating, 3 days” value ([3]; 0.1 mg/mL EtOH, scale 0-5) was 2.7 ab, the “Average (mean) disease rating, 7 days” value ([3]; 0.1 mg/mL EtOH, scale 0-5) was 4.0 ab and the “Average (mean) disease rating, 2 days” value ([3]; 0.1 mg/mL H2O, scale 0-5) was 0.3 b. For the same compound, the “Average (mean) disease rating, 3 days” value ([3]; 0.1 mg/mL H2O, scale 0-5) was 0.7 b, the “Average (mean) disease rating, 7 days” value ([3]; 0.1 mg/mL H2O, scale 0-5) was 2.3 b and the “rating at day 2” value [3, 5] was 2 (2×) and 1. The “rating at day 3” value [3, 5] was 3 (2×) and 2, the “rating at day 7” value [3, 5] was 5 (2×) and 2 and the “rating at day 2” value ([3]; 0.1 mg/mL in water, scale 0-5) was 0 (2×) and 1. For the same compound, the “rating at day 3” value ([3]; 0.1 mg/mL in water, scale 0-5) was 0 and 1 (2×), the “rating at day 7” value ([3]; 0.1 mg/mL in water, scale 0-5) was 1 and 2 and 4 and the “incidence of B. cinerea compared with untreated control pepper plants” value ([3]; 0.1 mg/mL water) was “significantly lower”. The “disease outbreak and final disease incidence compared with untreated control” value ([3]; dissolved in ethanol at 0.01 and 0.1 mg/mL) was “postponed the disease outbreak but the final disease incidence was not significantly different from the untreated control”, the EC50 (Verticillium dahliae) was 11 µg/mL (≈ 67 µM) and the EC50 (Colletotrichum acutatum) was 12 µg/mL (≈ 73.1 µM). The EC50 (Microphomina sp.) was 11 µg/mL (≈ 67 µM), the EC50 (Phytophtora capsici) was 12 µg/mL (≈ 73.1 µM) and the “inhibition in spore germination” value (Botrytis cinerea; B. cinerea, hinokitiol at concentrations 5-0.05 mg/mL, light microscope) was 100%. The EC50 (Botrytis cinerea; Botrytis cinerea, PDA, 20° C., hinokitiol in acetone) was 31 µg/mL (≈ 189 µM), the “number of pepper plants at scale of infection 2” value (Botrytis gray mold; 0.64 mg/ml, 24 hr after inoculation, of 18 plants per rep) was 12 and 7 and the “number of pepper plants at scale of infection 4” value (Botrytis gray mold; 0.64 mg/ml, 24 hr after inoculation, of 18 plants per rep, 4 = 75% of the plant dead) was 1 and 2. The “intensity of disease (scale of severity 0-5), single plants” value (Botrytis gray mold; 3.2% hinokitiol formulation at 1.0% v/v (0.32 mg/ml), applied 3 hr before inoculation, evaluated 3 days after inoculation, 1 = small scattered lesions, 5 = entire plant dead) was 1 and the “visible symptoms of disease or phytotoxicity on pepper plants” value (Botrytis gray mold; hinokitiol formulation at 1% (0.32 mg/ml) dilution) was “did not show any visible syptoms of disease or phytotocicity”.
